Experimental data reported in ChEMBL document CHEMBL4831477, “Structure-Enabled Discovery of Novel Macrocyclic Inhibitors Targeting Glutaminase 1 Allosteric Binding Site” (J Med Chem, 2021).
Activity calls are given as the source filed them. No cut-off for these calls is given here.

Tests used:
[1] = Clearance in Sprague-Dawley rat at 200 mg/kg, po measured upto 72 hrs by LC-MS/MS analysis; format: ADME, organism-based; conditions: in vivo, 200 mg/kg, 72 h
[2] = Apparent volume of distribution in Sprague-Dawley rat at 200 mg/kg, po measured upto 72 hrs by LC-MS/MS analysis; format: ADME, organism-based; conditions: in vivo
[3] = Acute toxicity in BALB/c nude mouse assessed as kidney damage at 200 mg/kg, po administered twice daily for 4 weeks by H and E staining based optical microscopic analysis; format: organism-based; conditions: in vivo, 672 h
[4] = AUC(0 to infinity) in Sprague-Dawley rat at 200 mg/kg, po measured upto 72 hrs by LC-MS/MS analysis; format: ADME, organism-based; parameters: route oral, dose 200 mg/kg, time <=72; conditions: in vivo, 72 h
[5] = Acute toxicity in BALB/c nude mouse assessed as lung damage at 200 mg/kg, po administered twice daily for 4 weeks by H and E staining based optical microscopic analysis; format: organism-based; conditions: in vivo, 672 h
[6] = system: HCT-116; experiment: Induction of ROS generation in human HCT-116 cells at 500 nM preincubated for 1 hr with NAC followed by compound addition by measured after 3 hrs DCFH-DA dye based flow cytometric analysis; format: functional, cell-based
[7] = target: T1, Glutaminase kidney isoform, mitochondrial (Mus musculus) (UniProt D3Z7P3); experiment: In vivo inhibition of GLS1 in BALB/c mouse xenografted with human HCT-116 cells assessed as reduction in alpha-ketoglutarate level at 200 mg/kg, po; format: functional, organism-based
T1 sequence (whole entry): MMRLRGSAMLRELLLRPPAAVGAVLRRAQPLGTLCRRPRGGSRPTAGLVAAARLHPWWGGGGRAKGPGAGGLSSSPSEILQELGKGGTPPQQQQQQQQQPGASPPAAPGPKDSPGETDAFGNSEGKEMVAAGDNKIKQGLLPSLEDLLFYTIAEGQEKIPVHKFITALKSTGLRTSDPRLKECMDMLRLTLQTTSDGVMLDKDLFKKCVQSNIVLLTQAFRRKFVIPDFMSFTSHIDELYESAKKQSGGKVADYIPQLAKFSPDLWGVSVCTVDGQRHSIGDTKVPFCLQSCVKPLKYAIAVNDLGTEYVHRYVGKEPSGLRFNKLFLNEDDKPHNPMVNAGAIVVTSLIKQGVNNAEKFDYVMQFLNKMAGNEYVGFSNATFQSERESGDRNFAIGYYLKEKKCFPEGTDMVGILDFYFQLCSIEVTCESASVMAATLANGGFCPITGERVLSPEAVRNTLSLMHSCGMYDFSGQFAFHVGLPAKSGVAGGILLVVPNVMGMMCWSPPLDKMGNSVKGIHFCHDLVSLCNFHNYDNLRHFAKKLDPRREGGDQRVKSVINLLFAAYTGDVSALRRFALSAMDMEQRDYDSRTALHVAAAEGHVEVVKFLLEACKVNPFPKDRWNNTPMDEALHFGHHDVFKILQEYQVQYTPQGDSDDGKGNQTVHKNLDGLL

[8] = system: HCT-116; experiment: Antitumor activity against human HCT-116 cells xenografted in BALB/c nude mouse assessed as karyorrhexis at 200 mg/kg, po administered twice daily measured after 28 days by H and E staining based optical microscopic method; format: functional, organism-based; conditions: time 28.0 day
[9] = system: Mus musculus; experiment: Induction of ROS generation in BALB/c mouse xenografted with human HCT-116 cells at 200 mg/kg, po; format: functional, organism-based
[10] = Oral bioavailability in Sprague-Dawley rat at 200 mg/kg measured upto 72 hrs by LC-MS/MS analysis; format: ADME, organism-based; conditions: in vivo
[11] = Distribution coefficient, logD of the compound at pH 7.4 by LC-MS based shake-flask method; format: physicochemical; conditions: octanol/water, read-out: logD
[12] = Cmax in BALB/c nude mouse plasma xenografted with human HCT-116 cells at 200 mg/kg, po administered twice daily for 28 days; format: ADME, organism-based; parameters: route oral, time 28 day, dose 200 mg/kg
[13] = target: T1, Glutaminase kidney isoform, mitochondrial (Mus musculus); experiment: In vivo inhibition of GLS1 in BALB/c mouse xenografted with human HCT-116 cells assessed as increase in glutamine level at 200 mg/kg, po; format: functional, organism-based
[14] = target: T1, Glutaminase kidney isoform, mitochondrial (Mus musculus); experiment: In vivo inhibition of GLS1 in BALB/c mouse xenografted with human HCT-116 cells assessed as reduction in fumarate level at 200 mg/kg, po; format: functional, organism-based
[15] = system: HCT-116; experiment: Antitumor activity against human HCT-116 cells xenografted in BALB/c nude mouse assessed as large areas of necrosis at 200 mg/kg, po administered twice daily measured after 28 days by H and E staining based optical microscopic analysis; format: functional, organism-based; conditions: time 28.0 day
[16] = Metabolic stability in mouse liver microsomes assessed as half life at 10 uM preincubated for 5 mins followed by NADPH addition by LC-MS/MS analysis; format: ADME, Microsome
[17] = AUC(0 to t) in Sprague-Dawley rat at 200 mg/kg, po measured upto 72 hrs by LC-MS/MS analysis; format: ADME, organism-based; parameters: route oral, dose 200 mg/kg, time <=72; conditions: in vivo

O=C1Cc2cccc(c2)OCC/C=C/CCOc2cccc(c2)CC(=O)Nc2nnc(s2)CCCCc2ccc(nn2)N1
CL [1]: 61.7 mL/min/kg | Vz [2]: 58.6 L/kg | Activity [3]: Non-Toxic | AUC [4]: 6064 ng·h/mL | Activity [5]: Non-Toxic | Activity [6]: inactive | inhibition [7]: Active | Activity [8]: Active | Activity [9]: Active | bioavailability [10]: 9% | logD [11]: 3.13 | Cmax [12]: 1630 nM | inhibition [13]: Active | inhibition [14]: Active | Activity [15]: Active | half-life at 10 µM [16]: 1.7 h | AUC(0-t) at 72 h [17]: 5920 ng·h/mL
